Structures can show the parent of a compound that is named as a salt.
Experiments:
[1] = system: esterase enzyme from palmarosa inflorescence (60-80% ammonium sulphate precipitated fraction); test: Hydrolysis of mixture of acyclic monoterpenyl esters by 60-80% ammonium sulphate precipitated protein fraction; assay type: biochemical, Cymbopogon martinii; details: 60-80% fraction, 1 mg protein; ester rich fraction from citronella java (geranyl acetate:geranyl formate:citronellyl acetate 60:18:21) as substrate
Description: (§1) The geranyl acetate cleaving esterase activity was determined by GLC monitoring of geraniol produced by the hydrolysis of geranyl acetate. The assay system consisted of 0.05M Tris-HCl buffer (pH 8.5), 5 mM MgCl2. 6H2O, 1 mM DTE, 2 mM geranyl acetate and enzyme extract (approximately 1 mg protein), in a total volume of 0.5 ml. The reaction mixture was incubated at 30° C. in a sealed capped tube for 3-4 hours. The geraniol produced and leftover geranyl acetate was then extracted with ether and subjected to GLC. The appearance of geraniol peak indicated the presence of geranyl acetate cleaving esterase activity (FIG. 1). A blank with the boiled enzyme was also run simultaneously.
(§2) The gas liquid chromatographic (GLC) analysis, for the determination of geraniol produced and leftover geranyl acetate, was performed using a Perkin Elmer (model 3920 B) apparatus equipped with FID (flame ionization detector) stainless steel column (2 m×3 mm i.d.) packed with 10% FFAP (free fatty acid phase) on chromosorb WAW (80-100 mesh). The operating conditions were: Column temperature isothermal at 165° C., injector and detector temperature 200° C. and 250° C. respectively. Nitrogen and hydrogen flow rate were a adjusted to 30 ml/min and 28 ml/min, respectively. The geraniol and geranyl acetate peaks were identified by coinjecting authentic standards and quantified using a Varian integrator (model 4400).
Monoterpenyl ester rich fraction from citronella java containing geranyl acetate, geranyl formate and citronellyl acetate in proportion (60:18:21) was used as substrate. […] Furthermore, crude esterase enzyme was also able to cleave these acyclic monoterpenyl esters but to a lesser extent.

[2] = system: esterase enzyme from palmarosa inflorescence; test: Hydrolysis of geranyl acetate and other acyclic monoterpenyl esters by crude enzymic preparation from palmarosa inflorescence, GLC monitoring; assay type: biochemical, Cymbopogon martinii; details: for Hydrolysis by crude enzymic preparation (in words): crude enzymic preparation from palmarosa inflorescence; for % Geranyl acetate hydrolyzed: 10 μmol geranyl acetate, 1 mg protein, 30° C.
Description: The extraction medium for the esterase enzyme consisted of 0.1 M NaPi buffer (pH 6.5) containing 50 mM sodium metabisulphite, 10 mM β-mercaptoethanol, 10 mM ascrobic acid, 0.25 M sucrose and 1 mM EDTA-Na2. Tissue (palmarosa inflorescence) was homogenized in cold extraction medium (1 g tissue/3 ml) in the presence of 50% (w/w) insoluble PVPP (polyvinyl polypyrrolidone), which prevent enzymic browning of the homogenate. The slurry was squeezed through four layers of muslin cloth and centrifuged at 15,000×g for 60 min. Purified amberlite XAD-4 resin (50% of the tissue weight) was added to the supernatant and kept for 5 minutes at 4° C., to remove the endogenous terpenes of the tissue, which can produce a significant artefact in the determination of esterase enzyme activity. The slurry thus formed was filtered through muslin cloth and the clear supernatant obtained was used to determine the acyclic monoterpenyl esters cleaving esterase activity using geranyl acetate as a model substrate. This supernatant fraction was also used for ammonium sulphate fractionation of the esterase enzyme.
Preliminary enzyme assays were done to optimize the assay conditions, and linearity of the reaction rate with time as well as enzyme concentration. The terpenoid substrates were solubilized by its dispersion in the solution of Tween-20 (10 μg/μmol of the substrate). A gas liquid chromatographic (GLC) procedure has been developed to detect the acyclic monoterpenyl esters cleaving esterase activity. […] Saturating levels (10 μmol) of the substrate geranyl acetate and 0.5 to 1.0 mg of the enzyme protein were used in each assay.
as §1, §2
Time course experiment was performed to study the linearity of the hydrolysis of geranyl acetate during the incubation period using enzymic preparation from palmarosa inflorescence. A linear catalytic rate was found up to six hours of incubation at 30° C. Almost 75% of the geranyl acetate was hydrolyzed after 24 hours of incubation (Table 1, FIG. 2).

% esters hydrolyzed per 3 hours [1]	Hydrolysis by crude enzymic preparation (in words) [2]	% Geranyl acetate hydrolyzed ([2]; incubation time 2 hour)	% Geranyl acetate hydrolyzed ([2]; incubation time 4 hour)	% Geranyl acetate hydrolyzed ([2]; incubation time 6 hour)	% Geranyl acetate hydrolyzed ([2]; incubation time 8 hour)	% Geranyl acetate hydrolyzed ([2]; incubation time 10 hour)	% Geranyl acetate hydrolyzed ([2]; incubation time 12 hour)	SMILES
6.78%	could also hydrolyze							CC(=O)OCCC(C)CCC=C(C)C (centres unmarked) [Citronellyl acetate, citronellyl acetate]
4.86%	could also hydrolyze							CC(C)=CCC/C(C)=C/COC=O [Geranyl formate, geranyl formate]
19.23%		8.2%	22.3%	32%	35.7%	47.1%	53.2%	CC(=O)OC/C=C(\C)CCC=C(C)C [geranyl acetate]

Source: patent US20020164755A1, “Stable esterase, a process for the extraction thereof, and use thereof for cleaving acyclic monoterpenyl esters into their monoterpenols” (Council of Scientific and Industrial Research, priority 2000, published 2002)
